# Results reported in patent US8729122B2, “Pharmaceutical and nutraceutical compositions of abscisic acid” (Valent BioSciences Corporation, priority 2010, dated 2014).
# Several values for one entry are separate records, joined by “and”; a condition that tells them apart may be missing. Identical values can stand only once.
# Experiments:
# rats [1] = test: 90-Day Oral Toxicity Study in Rodents (dietary S-ABA); assay type: in vivo; settings: for PROSTATE WEIGHT, mean: 90 days
# Experimental: Tests were conducted with (S)-(+)-abscisic acid in accordance with standard guidelines and procedures as evidenced by EPA Subchronic Toxicity Test Guidelines: 870.3050—Repeated Dose 28-Day Oral Toxicity Study in Rodents (July 2000); 870.3100—90-Day Oral Toxicity in Rodents (August 1998); 870.3650—Combined Repeated Dose Toxicity Study with the Reproduction/Developmental Toxicity Screening Test (July 2000); and 870.3200—21/28-Day Dermal Toxicity (August 1998), as well as Organization for Economic Co-operation and Development (OECD) Guidelines for the Testing of Chemicals including: Test No. 407: Repeated Dose 28-day Oral Toxicity Study in Rodents; Test No. 408: Repeated Dose 90-Day Oral Toxicity Study in Rodents; Test No. 416: Two-Generation Reproduction Toxicity; and Test No. 410: Repeated Dose Dermal Toxicity: 21/28-day Study.
# 90-Day Oral Toxicity Study in Rodents
# From the batch supplied (42 males and 42 females), 40 males and 40 females were assigned to the study. Animals were allocated to 4 dose groups and treated as follows:
# The animals were dosed by the dietary route 7 days/week for 13 consecutive weeks and up to immediately before terminal kill. Control animals received blank diet only. The concentration was constant throughout the treatment period. Detailed examinations were conducted on all animals during Weeks 4, 8 and 12. Histopathological evaluation of all tissues was undertaken for all animals in the Control and dose groups. Observations and testing results from this study can be seen in Tables 2, 4 and 5 below.
# In a 90 day toxicity study in rats, glucose and triglyceride levels were measured.
# rats [2] = test: Rat neurotoxicity testing; assay type: in vivo; settings: especially female
# [3] = Fetal data at scheduled necropsy; assay type: in vivo, rats
# From the text: Observations and testing results from this study can be seen in Tables 1, 3 and 6-13 below.
# Further supporting data can be seen below in Tables 10 and 11 showing that at necropsy fetus numbers and follicle size increase with the addition of S-ABA.
# rats [4] = test: 21-day Dermal Toxicity Study, removal of adhesive bandage; assay type: in vivo; settings: for Total No. of Removals (adhesive bandage), individual animals: 3 weeks
# Experimental: Animals were allocated to dose groups and treated as follows:
# Animals were dosed daily by dermal administration, with an exposure period of 6 hours, 7 days/week for a period of 3 weeks.
# The lumbar region of the animals was clipped to expose the skin (approximately 6×6 cm) with the test formulation being spread evenly over this area. A dressing of foil gauze and self adhesive bandage was wrapped around the torso to prevent oral ingestion. Following 6 hours of exposure the dressings were removed and the dose area wiped clean with a cloth dampened with distilled water.
# During the dosing period it was noted that some animals were able to get the adhesive bandage off during the 6 hour exposure period.
# rats [5] = test: Two Generation Reproduction Toxicity Study (dietary S-ABA); assay type: in vivo
# Experimental: Two Generation Reproduction Toxicity Study
# This study was conducted to determine the potential adverse effects of the test substance on reproduction in a 2-generation study. This included determining the effects of the test substance on male and female reproductive processes, including gonadal function, estrous cyclicity, mating behavior, conception, gestation, parturition, lactation, weaning, and on growth and development of the offspring. A minimum of 1 litter was produced in each generation.
# Three groups of male and female were offered S-ABA, continuously in the diet for at least 70 consecutive days prior to mating. Target tests substance concentrations were 10,000, 15,000, and 20,000 ppm for the F0 and F1 generations. A concurrent control group of 30 rats/sex was offered the basal diet continuously throughout the study. F0 animals were approximately 7 weeks of age at the initiation of test diet administration. The test diet was administered to the offspring selected to become the F1 generation following weaning. The F0 and F1 males continued to receive the test substance throughout mating and continuing through the day prior to euthanasia. The F0 and F1 females continued to receive the test substance throughout mating, gestation, and lactation, and through the day of euthanasia. For both generations (F1 and F2), 8 pups per litter (4 per sex, when possible) were selected to reduce the variability among the litters. Offspring (30/sex/group, if possible) from the pairing of the F0 animals were selected to constitute the F1 generation.
# All animals were observed twice daily for appearance and behavior. Clinical observations, body weights, and food consumption were recorded at appropriate intervals for males throughout the study and for females prior to mating and during gestation and lactation. All F0 and F1 females were allowed to deliver and rear their pups until weaning on lactation day 21. Clinical observations, body weights, and sexes for F1 and F2 pups were recorded at appropriate intervals. Nonselected F1 pups and all surviving F2 pups were necropsied. Selected organs were weighed from 1 pup/sex/litter from F1 and F2 pups that were necropsied. Each surviving F0 and F1 parental animal received a complete detailed gross necropsy following the completion of weaning of the F1 and F2 pups, respectively; selected organs were weighed. Spermatogenic endpoints were recorded for all F0 and F1 males, and ovarian primordial follicle counts were recorded for all F0 and F1 females in the control and high-exposure groups and all F0 and F1 females suspected of reduced fertility. Designated tissues from all F0 and F1 parental animals were examined microscopically.
compound,measurement,setting,value
"CC1=CC(=O)CC(C)(C)[C@@]1(O)/C=C/C(C)=C\C(=O)O [S-ABA, (S)-(+)-abscisic acid]","PROSTATE WEIGHT, mean","rats [1]; group 2, 2,000 ppm in diet",MEAN = 0.731 GRAMS
same,"PROSTATE WEIGHT, mean","rats [1]; group 3, 6,000 ppm in diet",MEAN = 0.908 GRAMS
same,"PROSTATE WEIGHT, mean","rats [1]; group 4, 20,000 ppm in diet",MEAN = 0.827 GRAMS
same,effect on triglyceride levels,"rats [1]; male and female rats, 2,000 ppm to 20,000 ppm",dose dependent decrease in triglyceride levels
same,alertness,rats [2],heighten alertness
same,"FEMALE fetuses at scheduled necropsy, MEAN","[3]; group 2, 500 MG/KG/DAY",7.2
same,"MALE fetuses at scheduled necropsy, MEAN","[3]; group 2, 500 MG/KG/DAY",7.5
same,"VIABLE FETUSES at scheduled necropsy, MEAN","[3]; group 2, 500 MG/KG/DAY",14.7
same,"FEMALE fetuses at scheduled necropsy, MEAN","[3]; group 3, 750 MG/KG/DAY",6.6
same,"MALE fetuses at scheduled necropsy, MEAN","[3]; group 3, 750 MG/KG/DAY",7.5
same,"VIABLE FETUSES at scheduled necropsy, MEAN","[3]; group 3, 750 MG/KG/DAY",14.2
same,"FEMALE fetuses at scheduled necropsy, MEAN","[3]; group 4, 1,000 MG/KG/DAY",8.3
same,"MALE fetuses at scheduled necropsy, MEAN","[3]; group 4, 1,000 MG/KG/DAY",6.8
same,"VIABLE FETUSES at scheduled necropsy, MEAN","[3]; group 4, 1,000 MG/KG/DAY",15.1
same,ability to remove the adhesive bandage,rats [4]; female rats in the treatment group,much better at removing the adhesive bandage
same,"Total No. of Removals (adhesive bandage), individual animals","rats [4]; group 2F, females, 100 mg/kg/day dermal, 100 mg/kg/day",4 and 1
same,"Total No. of Removals (adhesive bandage), individual animals","rats [4]; group 2M, males, 100 mg/kg/day dermal",1
same,"Total No. of Removals (adhesive bandage), individual animals","rats [4]; group 3F, females, 300 mg/kg/day dermal, 300 mg/kg/day",2 and 3
same,"Total No. of Removals (adhesive bandage), individual animals","rats [4]; group 4F, females, 1000 mg/kg/day dermal, 1000 mg/kg/day",3 and 7 and 6
same,"Total No. of Removals (adhesive bandage), individual animals","rats [4]; group 4M, males, 1000 mg/kg/day dermal",1
same,"SPERM PRODUCTION RATE, mean","rats [5]; 10,000 PPM",10.3 MILLIONS/GRAM/DAY
same,Mean Live Offspring Born (per litter),"rats [5]; 10,000 ppm",12.3
same,Offspring Born,"rats [5]; 10,000 ppm",322
same,Offspring FOUND DEAD,"rats [5]; 10,000 ppm",4
same,"POSTNATAL SURVIVAL, BIRTH-4 (PRE-SELECT), mean","rats [5]; 10,000 ppm",98.6 % PER LITTER
same,"POSTNATAL SURVIVAL, POSTNATAL DAY 0 (RELATIVE TO # BORN), mean","rats [5]; 10,000 ppm",99.7 % PER LITTER
same,"POSTNATAL SURVIVAL, POSTNATAL DAY 0-1, mean","rats [5]; 10,000 ppm",100.0 % PER LITTER
same,"POSTNATAL SURVIVAL, POSTNATAL DAY 1-4 (PRE-SELECTION), mean","rats [5]; 10,000 ppm",98.9 % PER LITTER
same,"POSTNATAL SURVIVAL, POSTNATAL DAY 4 (POST-SELECT)-21, mean","rats [5]; 10,000 ppm",99.5 % PER LITTER
same,"POSTNATAL SURVIVAL, POSTNATAL DAY 4 (POST-SELECTION)-7, mean","rats [5]; 10,000 ppm",99.5 % PER LITTER
same,"POSTNATAL SURVIVAL, POSTNATAL DAY 7-14, mean","rats [5]; 10,000 ppm",100.0 % PER LITTER
same,"POSTNATAL SURVIVAL, POSTNATAL DAY 14-21, mean","rats [5]; 10,000 ppm",100.0 % PER LITTER
same,"OFFSPRING WEIGHT, mean","rats [5]; 10,000 ppm, female, postnatal day 1",6.6 grams
same,"OFFSPRING WEIGHT, mean","rats [5]; 10,000 ppm, female, postnatal day 4",9.1 grams
same,"OFFSPRING WEIGHT, mean","rats [5]; 10,000 ppm, female, postnatal day 7",14.3 grams
same,"OFFSPRING WEIGHT, mean","rats [5]; 10,000 ppm, female, postnatal day 14",29.9 grams
same,"OFFSPRING WEIGHT, mean","rats [5]; 10,000 ppm, female, postnatal day 21",45.5 grams
same,"OFFSPRING WEIGHT, mean","rats [5]; 10,000 ppm, male, postnatal day 1",7.1 grams
same,"OFFSPRING WEIGHT, mean","rats [5]; 10,000 ppm, male, postnatal day 4",9.7 grams
same,"OFFSPRING WEIGHT, mean","rats [5]; 10,000 ppm, male, postnatal day 7",15.2 grams
same,"OFFSPRING WEIGHT, mean","rats [5]; 10,000 ppm, male, postnatal day 14",30.9 grams
same,"OFFSPRING WEIGHT, mean","rats [5]; 10,000 ppm, male, postnatal day 21",47.9 grams
same,offspring mortality,"rats [5]; 10,000 ppm, control 4.57%",1.24%
same,"SPERM PRODUCTION RATE, mean","rats [5]; 15,000 PPM",10.7 MILLIONS/GRAM/DAY
same,Mean Live Offspring Born (per litter),"rats [5]; 15,000 ppm",13.1
same,Offspring Born,"rats [5]; 15,000 ppm",375
same,Offspring FOUND DEAD,"rats [5]; 15,000 ppm",15
same,"POSTNATAL SURVIVAL, BIRTH-4 (PRE-SELECT), mean","rats [5]; 15,000 ppm",93.2 % PER LITTER
same,"POSTNATAL SURVIVAL, POSTNATAL DAY 0 (RELATIVE TO # BORN), mean","rats [5]; 15,000 ppm",96.1 % PER LITTER
same,"POSTNATAL SURVIVAL, POSTNATAL DAY 0-1, mean","rats [5]; 15,000 ppm",98.5 % PER LITTER
same,"POSTNATAL SURVIVAL, POSTNATAL DAY 1-4 (PRE-SELECTION), mean","rats [5]; 15,000 ppm",98.5 % PER LITTER
same,"POSTNATAL SURVIVAL, POSTNATAL DAY 4 (POST-SELECT)-21, mean","rats [5]; 15,000 ppm",98.2 % PER LITTER
same,"POSTNATAL SURVIVAL, POSTNATAL DAY 4 (POST-SELECTION)-7, mean","rats [5]; 15,000 ppm",99.6 % PER LITTER
